Assay results: patent US20240360113A1, “AMINOARYL-INTEGRIN AGONISTS COMPOUNDS” (Texas Heart Institute, priority 2021, published 2024)

How the values were obtained:
α4β1/VCAM-1 = target: T1, α4β1/VCAM-1 (Homo sapiens, UniProt P05556+P13612); assay: Static cell adhesion assay, Jurkat cells on VCAM-1 (VLA-4 agonist activity); assay type: cell-based; details: EC50 relative to THI0349 (average 11 uM) run on the same plate; Jurkat cells, 50% FBS
T1 construct: The Jurkat (VCAM-1 assays) and HSB (ICAM-1 assays) cell lines were obtained from American Type Culture Collection; endogenous in cells; host or cells: Jurkat (ATCC)
T1 sequence (P13612 34-1032): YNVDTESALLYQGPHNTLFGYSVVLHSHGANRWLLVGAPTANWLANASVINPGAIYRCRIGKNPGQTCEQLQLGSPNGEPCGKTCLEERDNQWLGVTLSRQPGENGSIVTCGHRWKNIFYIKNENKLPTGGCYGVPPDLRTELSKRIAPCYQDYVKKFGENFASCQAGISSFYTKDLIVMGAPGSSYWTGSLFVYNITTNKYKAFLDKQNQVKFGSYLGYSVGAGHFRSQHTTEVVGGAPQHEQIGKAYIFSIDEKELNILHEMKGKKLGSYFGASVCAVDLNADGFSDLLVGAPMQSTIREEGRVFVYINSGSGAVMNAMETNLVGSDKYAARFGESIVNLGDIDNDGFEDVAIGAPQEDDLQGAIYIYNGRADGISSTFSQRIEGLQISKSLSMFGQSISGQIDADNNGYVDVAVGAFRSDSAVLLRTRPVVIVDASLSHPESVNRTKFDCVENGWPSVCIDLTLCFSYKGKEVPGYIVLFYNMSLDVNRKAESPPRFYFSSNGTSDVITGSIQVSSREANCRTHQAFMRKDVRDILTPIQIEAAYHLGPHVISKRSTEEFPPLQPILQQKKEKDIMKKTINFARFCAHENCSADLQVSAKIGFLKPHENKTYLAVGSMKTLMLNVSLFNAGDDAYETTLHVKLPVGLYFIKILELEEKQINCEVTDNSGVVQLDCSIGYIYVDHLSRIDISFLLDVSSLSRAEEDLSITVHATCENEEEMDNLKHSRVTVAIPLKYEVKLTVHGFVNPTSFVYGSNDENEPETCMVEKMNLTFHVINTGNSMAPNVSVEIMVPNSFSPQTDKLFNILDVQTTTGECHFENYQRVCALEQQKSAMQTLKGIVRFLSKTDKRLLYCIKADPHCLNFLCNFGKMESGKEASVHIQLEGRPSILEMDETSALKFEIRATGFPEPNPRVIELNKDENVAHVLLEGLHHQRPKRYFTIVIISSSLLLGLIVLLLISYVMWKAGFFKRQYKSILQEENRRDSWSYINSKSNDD
T1 sequence (P05556 21-798): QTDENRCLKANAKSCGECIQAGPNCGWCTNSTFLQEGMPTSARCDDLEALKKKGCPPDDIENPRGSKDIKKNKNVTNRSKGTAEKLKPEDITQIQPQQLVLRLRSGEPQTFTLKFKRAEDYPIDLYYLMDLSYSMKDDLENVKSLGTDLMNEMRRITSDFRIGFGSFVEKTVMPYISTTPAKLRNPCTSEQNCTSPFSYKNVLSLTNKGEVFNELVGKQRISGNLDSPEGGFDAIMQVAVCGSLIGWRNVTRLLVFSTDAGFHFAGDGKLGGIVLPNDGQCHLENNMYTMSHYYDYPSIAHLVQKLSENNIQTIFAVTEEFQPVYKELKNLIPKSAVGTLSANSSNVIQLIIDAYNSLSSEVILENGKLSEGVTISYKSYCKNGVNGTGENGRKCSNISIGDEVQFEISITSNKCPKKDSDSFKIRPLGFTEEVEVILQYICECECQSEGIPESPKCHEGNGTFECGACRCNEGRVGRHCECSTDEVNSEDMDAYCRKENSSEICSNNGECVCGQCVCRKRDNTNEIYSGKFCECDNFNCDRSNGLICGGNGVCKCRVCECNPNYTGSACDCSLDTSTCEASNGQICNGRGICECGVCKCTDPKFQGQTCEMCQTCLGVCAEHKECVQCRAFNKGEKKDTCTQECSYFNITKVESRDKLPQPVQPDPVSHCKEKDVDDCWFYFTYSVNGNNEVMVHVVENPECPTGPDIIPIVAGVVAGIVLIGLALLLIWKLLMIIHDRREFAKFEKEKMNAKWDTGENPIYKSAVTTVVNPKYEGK
Procedure: (§1) For in vitro cell adhesion assays, compounds were dissolved in DMSO to make a series of stock solutions such that a 1:100 dilution in assay buffer would yield the desired final working concentrations in 1% DMSO (vehicle). Human VCAM-1 and ICAM-1 were purchased from R&D Systems (Minneapolis, MN). The Jurkat (VCAM-1 assays) and HSB (ICAM-1 assays) cell lines were obtained from American Type Culture Collection (Manassas, VA) and were maintained in recommended culture media.
(§2) Assays were performed as previously described in Vanderslice et al., (2010), Biochem Biophys Res Commun 400, 619-624; and Vanderslice et al., (2013) J Biol Chem 288, 19414-19428. VCAM-1 or ICAM-1 ligand in 50 μL of 50 mM Tris-HCl (pH 7.4), 150 mM NaCl, (TBS) was added to wells of a 96-well plate and allowed to coat overnight at 4° C. To maximize the window to evaluate agonist activity, a sub-optimal coating concentration of ligand was used, typically 0.5 and 5 μg/mL in 50 μL TBS for VCAM-1 and ICAM-1 respectively. This ligand concentration corresponded approximately to that which would yield <5% adhesion as determined by dose-response curves. Briefly, 2×10^6 cells were labeled for 30 minutes with calcein-AM (Molecular Probes), washed, resuspended in binding buffer, and added to triplicate wells of ligand-coated plates (2×10^5 cells/well) that had been blocked with 2% BSA. After a 30-minute incubation at 37° C., the plates were washed 3 times with binding buffer, the adherent cells were lysed, and fluorescence was measured on a Tecan Safire^2 plate reader. The binding buffer was PBS with 1 mM MgCl2, 50% FBS for α4β1/VCAM-1 assays and PBS with 2 mM MgCl2, 5 mM EGTA, 50% FBS for αLβ2/ICAM-1 assays. EC50 is defined as the concentration of compound required to achieve 50% of the maximal response.

αLβ2/ICAM-1 = target: T2, αLβ2/ICAM-1 (Homo sapiens, UniProt P05107+P20701); assay: Static cell adhesion assay, HSB cells on ICAM-1 (LFA-1; LAD); assay type: cell-based; details: RFU of compound / RFU of THI0349, both at the same concentration
T2 construct: The Jurkat (VCAM-1 assays) and HSB (ICAM-1 assays) cell lines were obtained from American Type Culture Collection; endogenous in cells; host or cells: HSB (ATCC)
T2 sequence (P20701 26-1170): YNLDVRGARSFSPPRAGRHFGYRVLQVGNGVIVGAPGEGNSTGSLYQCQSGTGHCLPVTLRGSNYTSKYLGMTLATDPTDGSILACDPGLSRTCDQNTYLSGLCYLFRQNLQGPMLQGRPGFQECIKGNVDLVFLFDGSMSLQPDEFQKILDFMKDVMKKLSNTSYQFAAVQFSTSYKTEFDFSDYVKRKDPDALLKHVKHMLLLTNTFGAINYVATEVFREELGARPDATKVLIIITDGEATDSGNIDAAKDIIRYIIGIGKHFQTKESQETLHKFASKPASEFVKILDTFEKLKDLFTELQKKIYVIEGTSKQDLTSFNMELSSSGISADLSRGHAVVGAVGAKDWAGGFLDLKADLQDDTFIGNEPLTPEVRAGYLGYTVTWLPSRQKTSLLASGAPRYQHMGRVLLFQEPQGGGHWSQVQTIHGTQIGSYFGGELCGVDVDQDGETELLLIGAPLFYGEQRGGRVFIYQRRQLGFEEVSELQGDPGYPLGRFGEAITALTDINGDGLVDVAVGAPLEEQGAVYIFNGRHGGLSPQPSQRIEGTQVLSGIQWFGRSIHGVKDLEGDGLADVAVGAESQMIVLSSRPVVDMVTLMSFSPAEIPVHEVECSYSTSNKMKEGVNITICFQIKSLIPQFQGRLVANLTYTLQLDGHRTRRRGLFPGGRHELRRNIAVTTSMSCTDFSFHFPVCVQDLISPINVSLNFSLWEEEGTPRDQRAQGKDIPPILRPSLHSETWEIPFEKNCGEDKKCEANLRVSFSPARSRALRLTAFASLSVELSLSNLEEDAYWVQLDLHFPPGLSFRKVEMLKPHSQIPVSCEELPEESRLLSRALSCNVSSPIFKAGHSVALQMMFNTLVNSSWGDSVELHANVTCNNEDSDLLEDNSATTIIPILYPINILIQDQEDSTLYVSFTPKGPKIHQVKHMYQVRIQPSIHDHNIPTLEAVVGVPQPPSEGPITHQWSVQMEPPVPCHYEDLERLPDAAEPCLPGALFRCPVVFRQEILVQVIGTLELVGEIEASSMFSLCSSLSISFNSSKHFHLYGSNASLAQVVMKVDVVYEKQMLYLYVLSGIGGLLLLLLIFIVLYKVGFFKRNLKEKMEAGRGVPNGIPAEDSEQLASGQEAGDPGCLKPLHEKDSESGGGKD
T2 sequence (P05107 23-769): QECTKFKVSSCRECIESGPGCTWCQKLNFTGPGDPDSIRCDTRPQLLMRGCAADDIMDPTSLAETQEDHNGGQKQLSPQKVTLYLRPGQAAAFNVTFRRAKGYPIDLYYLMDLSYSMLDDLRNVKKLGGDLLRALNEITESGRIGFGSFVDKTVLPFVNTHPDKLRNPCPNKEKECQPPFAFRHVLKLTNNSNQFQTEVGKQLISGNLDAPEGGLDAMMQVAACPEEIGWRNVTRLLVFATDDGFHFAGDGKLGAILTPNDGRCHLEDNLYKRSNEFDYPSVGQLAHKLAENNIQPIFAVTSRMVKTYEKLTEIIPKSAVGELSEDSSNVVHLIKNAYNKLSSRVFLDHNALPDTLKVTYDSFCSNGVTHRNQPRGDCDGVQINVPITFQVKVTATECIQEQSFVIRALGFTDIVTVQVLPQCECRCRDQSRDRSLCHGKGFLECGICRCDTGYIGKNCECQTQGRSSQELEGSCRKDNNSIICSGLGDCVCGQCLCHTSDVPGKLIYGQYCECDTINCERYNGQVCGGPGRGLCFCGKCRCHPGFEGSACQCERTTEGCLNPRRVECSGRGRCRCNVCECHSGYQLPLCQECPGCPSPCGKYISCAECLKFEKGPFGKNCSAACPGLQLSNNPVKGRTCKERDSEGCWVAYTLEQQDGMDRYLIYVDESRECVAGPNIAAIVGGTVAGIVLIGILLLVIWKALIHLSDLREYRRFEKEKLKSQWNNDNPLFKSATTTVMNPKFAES
Procedure: as §1, §2
In relation to LAD (Leukocyte Adhesion Deficiency), LFA-1 ratios are determined by dividing the relative fluorescence units (RFU) of each compound at a concentration of 3 μM over that of the reference standard of THI0349, also at 3 μM, (RFU Compound/RFU of THI0349). Log Ps were calculated by either Chemdraw® version 12 (CambridgeSoft) or ACD/Chemsketch® (ACD/Labs).

Compound	Group against VCAM (α4β1/VCAM-1)	LAD Raw Fluorescence Units against LFA-1; Dose 3 µM; Ratio of raw counts Compound/THI0349 (αLβ2/ICAM-1)
COc1ccc(CCCOCc2coc(N(Cc3cccs3)Cc3cccs3)n2)cc1 [Compound 24, 4-((3-(4-methoxyphenyl)propoxy)methyl)-N,N-bis(thiophen-2-ylmethyl)oxazol-2-amine]	II (Group II is more than twice that of THI0349 but less than five times THI0349's EC50)	0.85
COc1cccc(CN(Cc2cccc(OC)c2)c2nc(COCCOCCN3CCCCC3)cs2)c1 [Compound 62, N,N-bis(3-methoxybenzyl)-4-((2-(2-(piperidin-1-yl)ethoxy)ethoxy)methyl)thiazol-2-amine]	I (Group I maintains at least the same potency or better up to more than twice that of the EC50 of THI0349 ran on the same plate)	0.37
COc1cccc(CN(Cc2cccc(OC)c2)c2nc3c(s2)CN(C(=O)OC(C)(C)C)CC3)c1 [Compound 70, tert-butyl 2-(bis(3-methoxybenzyl)amino)-6,7-dihydrothiazolo[5,4-c]pyridine-5(4H)-carboxylate]	III (Group III more than five times the EC50 of THI0349)	0.14
COc1ccc(CCCNC(=O)c2csc(N(Cc3cccc(OC)c3)Cc3cccc(OC)c3)n2)cc1 [Compound 23, 2-(bis(3-methoxybenzyl)amino)-N-(3-(4-methoxyphenyl)propyl)thiazole-4-carboxamide]	I (Group I maintains at least the same potency or better up to more than twice that of the EC50 of THI0349 ran on the same plate)	0.85
COc1cccc(CN(Cc2cccc(OC)c2)c2nc(COCCOCc3ccccc3Cl)cs2)c1 [Compound 59, 4-((2-((2-chlorobenzyl)oxy)ethoxy)methyl)-N,N-bis(3-methoxybenzyl)thiazol-2-amine]	II (Group II is more than twice that of THI0349 but less than five times THI0349's EC50)	1.0
COc1cccc(COCCOCc2csc(N(Cc3cccc(OC)c3)Cc3cccc(OC)c3)n2)c1 [Compound 57, N,N-bis(3-methoxybenzyl)-4-((2-(3-methoxybenzyloxy)ethoxy)methyl)thiazol-2-amine]	I (Group I maintains at least the same potency or better up to more than twice that of the EC50 of THI0349 ran on the same plate)	0.25
COc1cccc(CN(Cc2cccc(OC)c2)c2nc(COCCOCc3ccccc3)cs2)c1 [Compound 58, 4-((2-(benzyloxy)ethoxy)methyl)-N,N-bis(3-methoxybenzyl)thiazol-2-amine]	I (Group I maintains at least the same potency or better up to more than twice that of the EC50 of THI0349 ran on the same plate)	0.48
COc1ccc(CCOCc2csc(N(Cc3cccc(OC)c3)Cc3cccc(OC)c3)n2)cc1 [Compound 40, N,N-bis(3-methoxybenzyl)-4-((4-methoxyphenethoxy)methyl)thiazol-2-amine]	III (Group III more than five times the EC50 of THI0349)	0.4
COc1cccc(CN(Cc2cccc(OC)c2)c2nc(COCCN3CCOCC3)cs2)c1 [Compound 64, N,N-bis(3-methoxybenzyl)-4-((2-morpholinoethoxy)methyl)thiazol-2-amine]	I (Group I maintains at least the same potency or better up to more than twice that of the EC50 of THI0349 ran on the same plate)	0.31
COc1cccc(CN(C)c2nc(CN3CCOCC3)cs2)c1 [Compound 111, N-(3-methoxybenzyl)-N-methyl-4-(morpholinomethyl)thiazol-2-amine]	III (Group III more than five times the EC50 of THI0349)	0.06
COc1cccc(CN(Cc2cccc(OC)c2)c2nc(COCCOc3ccccc3)cs2)c1 [Compound 52, N,N-bis(3-methoxybenzyl)-4-((2-phenoxyethoxy)methyl)thiazol-2-amine]	II (Group II is more than twice that of THI0349 but less than five times THI0349's EC50)	1.2
COc1cccc(CN(Cc2ccc3[nH]ncc3c2)c2nc(CN3CCOCC3)cs2)c1 [Compound 77, N-((1H-indazol-5-yl)methyl)-N-(3-methoxybenzyl)-4-(morpholinomethyl)thiazol-2-amine]	II (Group II is more than twice that of THI0349 but less than five times THI0349's EC50)	0.34
COc1ccc(CCNC(=O)c2coc(N(Cc3cccc(OC)c3)Cc3cccc(OC)c3)n2)cc1 [Compound 19, 2-(bis(3-methoxybenzyl)amino)-N-(4-methoxyphenethyl)oxazole-4-carboxamide]	II (Group II is more than twice that of THI0349 but less than five times THI0349's EC50)	0.12
COc1cccc(CN(Cc2cccc(OC)c2)c2nc(COCCOCCOc3cccc(OC)c3)cs2)c1 [Compound 42, N,N-bis(3-methoxybenzyl)-4-((2-(2-(3-methoxyphenoxy)ethoxy)ethoxy)methyl)thiazol-2-amine]	I (Group I maintains at least the same potency or better up to more than twice that of the EC50 of THI0349 ran on the same plate)	1.6
COc1ccc(CN(Cc2ccc(OC)cc2)c2nc(CO)co2)cc1 [Compound 26, (2-(bis(4-methoxybenzyl)amino)oxazol-4-yl)methanol]	I (Group I maintains at least the same potency or better up to more than twice that of the EC50 of THI0349 ran on the same plate)	0.79
COCCOc1cccc(CN(Cc2cccc(OCCOC)c2)c2nc(C)cs2)c1 [Compound 30, N,N-bis(3-(2-methoxyethoxy)benzyl)-4-methylthiazol-2-amine]	III (Group III more than five times the EC50 of THI0349)	1.2
COc1cccc(CN(Cc2cccc(OC)c2)c2nc(COCCOc3cccc(C#N)c3)cs2)c1 [Compound 50, 3-(2-((2-(bis(3-methoxybenzyl)amino)thiazol-4-yl)methoxy)ethoxy)benzonitrile]	III (Group III more than five times the EC50 of THI0349)	1.2
COc1cccc(CN(Cc2cccc(OC)c2)c2nc(COCCOCCOc3cccc(N(C)C)c3)cs2)c1 [Compound 41, 4-((2-(2-(3-(dimethylamino)phenoxy)ethoxy)ethoxy)methyl)-N,N-bis(3-methoxybenzyl)thiazol-2-amine]	I (Group I maintains at least the same potency or better up to more than twice that of the EC50 of THI0349 ran on the same plate)	1.3
CCOC(=O)c1ccc(N(Cc2cccc(OC)c2)Cc2cccc(OC)c2)cc1 [Compound 85, ethyl 4-(bis(3-methoxybenzyl)amino)benzoate]	III (Group III more than five times the EC50 of THI0349)	0.03
